We go through 4 compounds from ChEMBL document CHEMBL1949614, “Advent of Imidazo[1,2-a]pyridine-3-carboxamides with Potent Multi- and Extended Drug Resistant Antituberculosis Activity” (ACS Med Chem Lett, 2011).

Experiment in all cases: microbe, parasite or virus in culture
Experiment [1] relates to Mycobacterium tuberculosis. The conditions noted are these: variant bovis BCG.
The subject of experiment [2] is Mycobacterium tuberculosis.
Experiment [3] deals with Mycobacterium tuberculosis. This is another data set of the same source.
In experiment [4] the test system is Mycobacterium tuberculosis. This is another data set of the same source.
The test system of experiment [5] is Mycobacterium tuberculosis. The source holds these as a separate data set.

In brackets after ≈: the same amount, converted by molar mass.

On to `CO[C@H]1/C=C/O[C@@]2(C)Oc3c(C)c(O)c4c(O)c(c(/C=N/N5CCN(C)CC5)c(O)c4c3C2=O)NC(=O)/C(C)=C\C=C\[C@H](C)[C@H](O)[C@@H](C)[C@@H](O)[C@@H](C)[C@H](OC(C)=O)[C@@H]1C` [RIFAMPIN], for which the MIC90 in experiment [1] is less than 0.78 µM; in experiment [2], more than 1 µM.
Take `Cc1ccn2c(C(=O)NCc3ccccc3)c(C)nc2c1`: the MIC90 in experiment [3] amounted to 1.02 µM (≈ 0.285 µg/mL); in experiment [1], 0.33 µM (≈ 0.0922 µg/mL); in experiment [4], 1.07 µM (≈ 0.299 µg/mL); in experiment [2] it was 0.28 µM (≈ 0.0782 µg/mL).
For the compound `COc1cccc(CNC(=O)c2c(C)nc3ncc(C)cn23)c1`, the MIC90 in experiment [3] was found to be 5.84 µM (≈ 1.81 µg/mL); in experiment [1] it was 2.78 µM (≈ 0.863 µg/mL); in experiment [4], 1.02 µM (≈ 0.317 µg/mL); in experiment [2], 1.49 µM (≈ 0.462 µg/mL); in experiment [5], 5.84 µM (≈ 1.81 µg/mL).
`NNC(=O)c1ccncc1` [ISONIAZID] came in with an MIC90 in experiment [5] of more than 8 µM.
